The text below walks through data of US10456509B2, “Chlorhexidine gluconate compositions, resin systems and articles” (3M INNOVATIVE PROPERTIES COMPANY, priority 2012, dated 2019).

The nature of data set [1]: Solubility Screening of CHG in vehicles, Vacuum Method. Here is the method: Solubility Screening. Screening tests were conducted to determine the solubility of CHG in a wide variety of vehicles. Tests were conducted using the Vacuum Method and the Lyophilizing Method.
Vacuum Method. […] The flask was put in a 60° C. oil bath and stirred with a magnetic stir bar. […] In those cases, after nearly all the water was removed, additional vehicle was added to bring the final weight to 50 grams. The resulting concentration of CHG and residual water were determined. Also, the final state of the solution was qualitatively evaluated to determine if the mixture was transparent and apparently homogenous, or clearly inhomogeneous.

Data set [2] in a line: Solubility of lyophilized CHG in vehicles, Lyophilization Method. The note with it: for Apparent solubility 2 minutes / Apparent solubility 2 hours 50° C. / Apparent solubility >24 hours / Apparent solubility after cooling / Apparent solubility immediate: 0.2 wt. % lyophilized CHG; for Apparent solubility 2 minutes: after 2 minutes; for Apparent solubility 2 hours 50° C.: after 2 hours in 50° C. oven; for Apparent solubility >24 hours: after 24 hours; for Apparent solubility after cooling: after cooling to room temperature; for Apparent solubility immediate: observed immediately after mixing. The protocol:
The Lyophilization Method. Lyophilized CHG was prepared by freeze-drying the aqueous CHG solution (20 wt. % solution in water, obtained from Xttrium Laboratories Inc., Chicago, Ill.).
For lower viscosity vehicles, a 5 ml sample of the non-aqueous vehicle of interest was measured into a glass vial. For higher viscosity vehicles that were difficult to transfer by volume, a 5 gm sample was weighed into the vial. Next, 0.01 g of lyophilized CHG was added to the vial. The sample was capped and mixed by shaking for 30 seconds. The sample was immediately observed and then observed again after 2 minutes and again after 24 hours. After 24 hours, the sample was placed in a 50° C. oven for 2 hours and then removed and immediately observed. These samples were allowed to cool to room temperature and a final observation was made.
CHG solutions. The solutions containing CHG were either a 20 wt. % aqueous solution of CHG or a 10-20% w/w solution of CHG in a non-aqueous vehicle. The non-aqueous solutions were prepared by freeze drying the aqueous CHG solution to produce lyophilized CHG. Finely divided, lyophilized CHG was then solubilized in a non-aqueous vehicle at room temperature with continuous stirring for eight hours.

[3] abbreviates: CHG 10 wt. % in vehicle, 23-50° C., Vacuum Method.
[4] abbreviates: CHG 20 wt. % in vehicle, 23-50° C., Vacuum Method.
Where [5] appears, read: summary of Tables 1a-3b, Vacuum Method.
Where [6] appears, read: CHG 5 wt. % in vehicle, 23-50° C., Vacuum Method.

Counter-ions that a name gives are not always drawn. Like-named read-outs stand apart in the source and are kept apart here.

For `OCCCCC(O)CO` (centres unmarked) [1,2,6-trihydroxyhexane], in data set [1] (setting [3]), the “Final State” value is “Homogeneous”.

In the case of `CCCCCCC(O)CO` (centres unmarked) [1,2-octanediol], the “Final State” value in data set [1] (setting [3]) and in data set [1] (setting [4]) was “Homogeneous” each time.

Consider `CCCC(O)CO` (centres unmarked) [1,2-pentanediol], for which, in data set [1] (CHG 50 wt. % in vehicle, 23-50° C., Vacuum Method), the “Final State” value was “Homogeneous”.

Consider `CC(O)CO` (centres unmarked) [1,2-propanediol], for which the “Final State” value in data set [1] (setting [3]) is reported as “Homogeneous”.

`OC1CCCC(O)C1` (centres unmarked) [1,3-cyclohexanediol]: the “Final State” value in data set [1] (CHG 6 wt. % in vehicle, 23° C., Vacuum Method) is reported as “Inhomogeneous”; in data set [1] (CHG 6 wt. % in vehicle, 50° C., Vacuum Method), “Homogeneous”; in data set [1] (CHG 10 wt. % in vehicle, 23° C., Vacuum Method), “Inhomogeneous”; in data set [1] (CHG 10 wt. % in vehicle, 50° C., Vacuum Method), “Homogeneous”.

As for `OCC1(O)COC(O)(CO)CO1` (centres unmarked) [1,3-dihydroxyacetone dimer], in data set [1] (setting [3]), the “Final State” value is recorded as “Homogeneous”.

Turning to `OCCCCO` [1,4-butanediol], in data set [1], the “CHG solubility in vehicle (trend)” value is “provides solubility” and the “Final State” value is reported as “Homogeneous”.

On to `OC1CCC(O)CC1` (centres unmarked) [1,4-cyclohexanediol], for which the “Final State” value in data set [1] (setting [3]) is “Inhomogeneous”. Besides, the “CHG solubility in vehicle (trend)” value in data set [1] (setting [5]) is on record as “do not provide good solubility”.

Regarding `OCCCCCO` [1,5-pentanediol], in data set [1], the “CHG solubility in vehicle (trend)” value is reported as “too widely separated to impart good solubility” and the “Final State” value is reported as “Inhomogeneous”.

As to `OCCCCCCCCO` [1,8-octanediol], in data set [1] (setting [3]), the “Final State” value was “Inhomogeneous”. Besides, the “CHG solubility in vehicle (trend)” value in data set [1] (setting [5]) was “too widely separated to impart good solubility”.

In the case of `CC(O)C(C)O` (centres unmarked) [2,3-butanediol], the “Final State” value in data set [1] is on record as “Homogeneous”.

Take `CC(C)(O)C(C)(C)O` [2,3-dimethyl-2,3-butanediol]: in data set [1], the “CHG solubility in vehicle (trend)” value was “do not always impart solubility” and the “Final State” value is given as “Inhomogeneous”.

As for `CC(O)CCC(C)O` (centres unmarked) [2,5-hexanediol], in data set [1] (setting [3]), the “Final State” value is reported as “Inhomogeneous”. Further, the “CHG solubility in vehicle (trend)” value in data set [1] (setting [5]) is “do not provide good solubility”.

`CC(C)(O)CCO` [3-methyl-1,3-butanediol]: the “Final State” value in data set [1] (CHG 1 wt. % in vehicle, 23° C., Vacuum Method) is given as “Inhomogeneous”; in data set [1] (CHG 1 wt. % in vehicle, 50° C., Vacuum Method), “Homogeneous”; in data set [1] (CHG 2.5 wt. % in vehicle, 23° C., Vacuum Method) it was “Inhomogeneous”; in data set [1] (CHG 2.5 wt. % in vehicle, 50° C., Vacuum Method), “Homogeneous”; in data set [1] (setting [6]), “Inhomogeneous”; in data set [1] (setting [3]), “Inhomogeneous”.

Consider `CCOC(=O)CC(CC(=O)OCC)(OC(C)=O)C(=O)OCC` [Acetyltriethyl citrate], for which, in data set [2], the “Apparent solubility 2 minutes” value was “no”, the “Apparent solubility 2 hours 50° C.” value is “soluble”, the “Apparent solubility >24 hours” value is on record as “partial” and the “Apparent solubility after cooling” value is given as “partial”. For the same compound, in data set [2], the Apparent solubility immediate entry is listed as “no”.

For `CCCCOC(=O)[C@H](O)[C@@H](O)C(=O)OCCCC` [Dibutyl-L-Tartrate], in data set [1], the “Final State” value was “Homogeneous”.

For `CCOC(=O)[C@@H](O)[C@H](O)C(=O)OCC` [Diethyl-D-Tartrate], the “Final State” value in data set [1] (setting [3]) was “Homogeneous”.

As for `CCOC(=O)[C@H](O)[C@@H](O)C(=O)OCC` [Diethyl-L-Tartrate], in data set [1], the “Final State” value is “Homogeneous”.

As to `COCCOCCOC` [Diethyleneglycol Dimethyl Ether], the “Final State” value in data set [1] is “Inhomogeneous”.

Turning to `CCCCOCCOCCO` [Diethyleneglycol Monobutyl Ether], the “Final State” value in data set [1] is recorded as “Inhomogeneous”.

On to `CCOCCOCCO` [Diethyleneglycol monoethyl ether], for which the “Final State” value was “Homogeneous” in data set [1] (CHG 2.5 wt. % in vehicle, 23-50° C., Vacuum Method); “Inhomogeneous” in data set [1] (setting [6]); “Inhomogeneous” in data set [1] (setting [3]).

Regarding `COCCOCCO` [Diethyleneglycol monomethyl ether], the “Final State” value in data set [1] (setting [3]) is listed as “Homogeneous”.

For the compound `CC(C)OC(=O)[C@@H](O)[C@H](O)C(=O)OC(C)C` [Diisopropyl-D-Tartrate], the “Final State” value in data set [1] is “Inhomogeneous”.

For `CC(C)OC(=O)[C@H](O)[C@@H](O)C(=O)OC(C)C` [Diisopropyl-L-Tartrate], in data set [1] (setting [3]), the “Final State” value was “Inhomogeneous”.

Consider `CCCCC(CC)COCC(O)CO` (centres unmarked) [Ethylhexyl glycerin], for which, in data set [1], the “Final State” value is recorded as “Homogeneous”.

Turning to `CCCCCCCCO` [Example 1-octanol, 1-octanol], the “Final State” value in data set [1] (setting [3]) is listed as “Inhomogeneous”.

With `CC(C)CCCCCCCCCCCCCCC(=O)OCC(O)CO` (centres unmarked) [GMIS-1, glycerol monoisostearate], the “solubility of CHG in vehicle (dissolution experiments using lyophilized CHG)” value in data set [2] is on record as “limited”.

In the case of `CC(C)CCCCCCCCCCCCCCC(=O)OCC(O)CO` (centres unmarked) [GMIS-2, glycerol monoisostearate], the “solubility of CHG in vehicle (dissolution experiments using lyophilized CHG)” value in data set [2] is recorded as “good solvent for CHG”.

Regarding `OCC(O)CO` [Glycerol], the “Final State” value in data set [1] is reported as “Homogeneous”.

On to `CCCCCCCC(=O)OCC(O)CO` (centres unmarked) [Glyceryl monocaprylate], for which, in data set [1], the “Final State” value is “Homogeneous”.

Regarding `CC(C)CCCCCCCCCCCCCCC(=O)OCC(O)CO` (centres unmarked) [Glyceryl monoisostearate], the “Final State” value in data set [1] (CHG 10 wt. % in vehicle, 23-60° C., Vacuum Method) is “Homogeneous”; in data set [1] (CHG 16 wt. % in vehicle, 23-60° C., Vacuum Method) it was “Homogeneous”; in data set [1] (CHG 20 wt. % in vehicle, 60° C., Vacuum Method), “Homogeneous”.

Consider `CCCCCCCCCCCC(=O)OCC(O)CO` (centres unmarked) [Glyceryl monolaurate], for which the “Final State” value in data set [1] (CHG 20 wt. % in vehicle, 75° C., Vacuum Method) is recorded as “Homogeneous”.

In the case of `CCCCCCCC/C=C\CCCCCCCC(=O)OCC(O)CO` (centres unmarked) [Glyceryl monooleate], the “Final State” value in data set [1] (setting [4]) is “Homogeneous”.

For the compound `CCCCCCCCCCCCCCCCCC(=O)OCC(O)CO` (centres unmarked) [Glyceryl monostearate], the “Final State” value in data set [1] (CHG 10 wt. % in vehicle, 80° C., Vacuum Method) is on record as “Homogeneous”.

As to `CC(C)CCCCCCCCCCCCCCCOC(=O)CCCCCCCCCCCCCCC(C)C` [Isostearyl isostearate], in data set [2], the “Apparent solubility 2 minutes” value is recorded as “no”, the “Apparent solubility 2 hours 50° C.” value is given as “partial”, the “Apparent solubility >24 hours” value was “no” and the “Apparent solubility after cooling” value is “partial”. Besides, the Apparent solubility immediate result in data set [2] was “no”.

For the compound `CCOC(=O)C(=O)OCC` [Oxalic Acid Diethyl Ester], in data set [1], the “Final State” value is listed as “Inhomogeneous”.

Take `CC(C)CCCCCCCCCCCCCCC(=O)OCC(COC(=O)CCCCCCCCCCCCCCC(C)C)(COC(=O)CCCCCCCCCCCCCCC(C)C)COC(=O)CCCCCCCCCCCCCCC(C)C` [Pentaerythritol tetraisostearate]: in data set [2], the “Apparent solubility 2 minutes” value is on record as “partial”, the “Apparent solubility 2 hours 50° C.” value was “partial”, the “Apparent solubility >24 hours” value is reported as “partial” and the “Apparent solubility after cooling” value is given as “partial”. Further, in data set [2], the Apparent solubility immediate result is recorded as “partial”.

Turning to `OCCOCCOCCO` [Triethylene glycol], the “Final State” value in data set [1] is listed as “Homogeneous”.

For the compound `CC(O)COC(C)COC(C)CO` (centres unmarked) [Tripropylene glycol], in data set [1], the “Final State” value is recorded as “Inhomogeneous”.

With Decaglyceryl pentaoleate, the “Final State” value in data set [1] is “Inhomogeneous”.

As for Decaglyceryl tristearate, the “Final State” value in data set [1] is reported as “Homogeneous”.

Regarding Diisostearyl dimerate, in data set [2], the “Apparent solubility 2 minutes” value is listed as “no”, the “Apparent solubility 2 hours 50° C.” value is recorded as “soluble”, the “Apparent solubility >24 hours” value is “no” and the “Apparent solubility after cooling” value is “no”. Further, in data set [2], the Apparent solubility immediate result is “no”.

Turning to Dimer Diol, in data set [1], the “Final State” value is listed as “Inhomogeneous”.

Regarding Glycereth-18 Ethylhexanoate, in data set [2], the “Apparent solubility 2 minutes” value is recorded as “no”, the “Apparent solubility 2 hours 50° C.” value is listed as “soluble”, the “Apparent solubility >24 hours” value is “soluble” and the “Apparent solubility after cooling” value is on record as “soluble”. Also, in data set [2], the Apparent solubility immediate result is “no”.

As for Octyldodeceth-10, in data set [2], the “Apparent solubility 2 minutes” value was “partial”, the “Apparent solubility 2 hours 50° C.” value was “partial”, the “Apparent solubility >24 hours” value is reported as “partial” and the “Apparent solubility after cooling” value is “partial”. Further, the Apparent solubility immediate result in data set [2] is reported as “no”.

As for Polyethyleneglycol Dimethyl Ether, the “Final State” value in data set [1] was “Inhomogeneous”.

For Polyglycerol-2-Triisostearate, in data set [1], the “Final State” value is on record as “Inhomogeneous”.

For Sorbeth-6, the “Final State” value in data set [1] is “Homogeneous”.

Triglyceryl diisostearate: the “Final State” value in data set [1] was “Inhomogeneous”.
